From the supplement of paper PMC10307832

Key:
Assay in all cases: relative viability (nuclei count vs DMSO), 5 days (fraction); higher = more cells survive
RERF-LC-KJ = test system: RERF-LC-KJ
Outline: (§1)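 Relative viability equals treated-well nuclei counts divided by vehicle-well nuclei counts. Counts came from 4× images of lung cancer cell lines grown in 1536-well plates for 5 days after pin-tool dosing on the day after seeding. Dosing used one drug alone or a fixed anchor-drug dose plus five library-drug doses (not always all listed) in √10 steps, and values are medians of duplicate plates.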

ABC-1 = test system: ABC-1
Outline: as §1

EBC-1 = test system: EBC-1
Outline: as §1

NCI-H1993 = test system: NCI-H1993
Outline: as §1

NCI-H1703 = test system: NCI-H1703
Outline: as §1

Calu-6 = test system: Calu-6
Outline: as §1

NCI-H1299 = test system: NCI-H1299
Outline: as §1

IA-LM = test system: IA-LM
Outline: as §1

HCC-44 = test system: HCC-44
Outline: as §1

EKVX = test system: EKVX
Outline: as §1

NCI-H2126 = test system: NCI-H2126
Outline: as §1

NCI-H2085 = test system: NCI-H2085
Outline: as §1

Question: CC(=O)O[C@@]12CO[C@@H]1C[C@H](O)[C@@]1(C)C(=O)[C@H](O)C3=C(C)[C@@H](OC(=O)[C@H](O)[C@@H](NC(=O)OC(C)(C)C)c4ccccc4)C[C@@](O)([C@@H](OC(=O)c4ccccc4)[C@H]21)C3(C)C [Docetaxel] + CC(C)C[C@H](NC(=O)[C@H](Cc1ccccc1)NC(=O)c1cnccn1)B(O)O [Bortezomib] (partner 0.002 µM) was tested. Which relative viability (RERF-LC-KJ; first compound 0.0002 µM) did it give?
Answer: 0.967

Question: What about the relative viability (RERF-LC-KJ; first compound 0.000632 µM) of the same molecule?
Answer: 0.841

Question: What about the relative viability (RERF-LC-KJ; first compound 0.002 µM) of the same molecule?
Answer: 0.499

Question: What about the relative viability (RERF-LC-KJ; first compound 0.006325 µM) of the same molecule?
Answer: 0.251

Question: What about the relative viability (RERF-LC-KJ; first compound 0.02 µM) of the same molecule?
Answer: 0.198

Question: And the relative viability (ABC-1; first compound 0.0002 µM)?
Answer: 0.298

Question: What about the relative viability (ABC-1; first compound 0.000632 µM) of the same molecule?
Answer: 0.334

Question: What about the relative viability (ABC-1; first compound 0.002 µM) of the same molecule?
Answer: 0.306

Question: What about the relative viability (ABC-1; first compound 0.006325 µM) of the same molecule?
Answer: 0.247

Question: And the relative viability (ABC-1; first compound 0.02 µM)?
Answer: 0.278

Question: And the relative viability (EBC-1; first compound 0.0002 µM)?
Answer: 0.479

Question: What about the relative viability (EBC-1; first compound 0.000632 µM) of the same molecule?
Answer: 0.385

Question: And the relative viability (EBC-1; first compound 0.002 µM)?
Answer: 0.237

Question: And the relative viability (EBC-1; first compound 0.006325 µM)?
Answer: 0.27

Question: And the relative viability (EBC-1; first compound 0.02 µM)?
Answer: 0.174

Question: What about the relative viability (NCI-H1993; first compound 0.0002 µM) of the same molecule?
Answer: 0.961

Question: What about the relative viability (NCI-H1993; first compound 0.000632 µM) of the same molecule?
Answer: 1.06

Question: And the relative viability (NCI-H1993; first compound 0.002 µM)?
Answer: 0.798

Question: And the relative viability (NCI-H1993; first compound 0.006325 µM)?
Answer: 0.608

Question: And the relative viability (NCI-H1993; first compound 0.02 µM)?
Answer: 0.399

Question: And the relative viability (NCI-H1703; first compound 0.0002 µM)?
Answer: 0.256

Question: And the relative viability (NCI-H1703; first compound 0.000632 µM)?
Answer: 0.249

Question: What about the relative viability (NCI-H1703; first compound 0.006325 µM) of the same molecule?
Answer: 0.149

Question: What about the relative viability (NCI-H1703; first compound 0.02 µM) of the same molecule?
Answer: 0.0944

Question: And the relative viability (Calu-6; first compound 0.0002 µM)?
Answer: 0.95

Question: What about the relative viability (Calu-6; first compound 0.000632 µM) of the same molecule?
Answer: 0.828

Question: What about the relative viability (Calu-6; first compound 0.002 µM) of the same molecule?
Answer: 0.327

Question: And the relative viability (Calu-6; first compound 0.006325 µM)?
Answer: 0.182

Question: What about the relative viability (Calu-6; first compound 0.02 µM) of the same molecule?
Answer: 0.106

Question: What about the relative viability (NCI-H1299; first compound 0.0002 µM) of the same molecule?
Answer: 1.05

Question: What about the relative viability (NCI-H1299; first compound 0.000632 µM) of the same molecule?
Answer: 0.997

Question: And the relative viability (NCI-H1299; first compound 0.002 µM)?
Answer: 0.948

Question: And the relative viability (NCI-H1299; first compound 0.006325 µM)?
Answer: 0.586

Question: And the relative viability (NCI-H1299; first compound 0.02 µM)?
Answer: 0.503

Question: What about the relative viability (IA-LM; first compound 0.0002 µM) of the same molecule?
Answer: 0.471

Question: And the relative viability (IA-LM; first compound 0.000632 µM)?
Answer: 0.192

Question: What about the relative viability (IA-LM; first compound 0.002 µM) of the same molecule?
Answer: 0.11

Question: And the relative viability (IA-LM; first compound 0.006325 µM)?
Answer: 0.0654

Question: And the relative viability (IA-LM; first compound 0.02 µM)?
Answer: 0.0642

Question: And the relative viability (HCC-44; first compound 0.0002 µM)?
Answer: 0.904

Question: What about the relative viability (HCC-44; first compound 0.000632 µM) of the same molecule?
Answer: 0.905

Question: What about the relative viability (HCC-44; first compound 0.002 µM) of the same molecule?
Answer: 0.57

Question: What about the relative viability (HCC-44; first compound 0.006325 µM) of the same molecule?
Answer: 0.151

Question: And the relative viability (HCC-44; first compound 0.02 µM)?
Answer: 0.149

Question: What about the relative viability (EKVX; first compound 0.0002 µM) of the same molecule?
Answer: 1.05

Question: What about the relative viability (EKVX; first compound 0.000632 µM) of the same molecule?
Answer: 0.718

Question: What about the relative viability (EKVX; first compound 0.002 µM) of the same molecule?
Answer: 0.429

Question: What about the relative viability (EKVX; first compound 0.006325 µM) of the same molecule?
Answer: 0.269

Question: What about the relative viability (EKVX; first compound 0.02 µM) of the same molecule?
Answer: 0.152

Question: What about the relative viability (NCI-H2126; first compound 0.0002 µM) of the same molecule?
Answer: 1.12

Question: What about the relative viability (NCI-H2126; first compound 0.000632 µM) of the same molecule?
Answer: 1.09

Question: And the relative viability (NCI-H2126; first compound 0.002 µM)?
Answer: 1.04

Question: What about the relative viability (NCI-H2126; first compound 0.006325 µM) of the same molecule?
Answer: 0.427

Question: What about the relative viability (NCI-H2126; first compound 0.02 µM) of the same molecule?
Answer: 0.288

Question: What about the relative viability (NCI-H2085; first compound 0.0002 µM) of the same molecule?
Answer: 0.882

Question: What about the relative viability (NCI-H2085; first compound 0.000632 µM) of the same molecule?
Answer: 1.06

Question: What about the relative viability (NCI-H2085; first compound 0.002 µM) of the same molecule?
Answer: 0.718

Question: And the relative viability (NCI-H2085; first compound 0.006325 µM)?
Answer: 0.54

Question: And the relative viability (NCI-H2085; first compound 0.02 µM)?
Answer: 0.46

Question: With Cc1sc2c(c1C)C(c1ccc(Cl)cc1)=N[C@@H](CC(=O)OC(C)(C)C)c1nnc(C)n1-2 [JQ1] + CC(C)C[C@H](NC(=O)[C@H](Cc1ccccc1)NC(=O)c1cnccn1)B(O)O [Bortezomib] (partner 0.002 µM) as the molecule, how does the relative viability (RERF-LC-KJ; first compound 0.04 µM) read?
Answer: 1.17

Question: And the relative viability (RERF-LC-KJ; first compound 0.1265 µM)?
Answer: 1.11

Question: What about the relative viability (RERF-LC-KJ; first compound 0.4 µM) of the same molecule?
Answer: 1.13

Question: And the relative viability (RERF-LC-KJ; first compound 1.265 µM)?
Answer: 0.52

Question: And the relative viability (RERF-LC-KJ; first compound 4 µM)?
Answer: 0.415

Question: And the relative viability (ABC-1; first compound 0.04 µM)?
Answer: 0.306

Question: And the relative viability (ABC-1; first compound 0.1265 µM)?
Answer: 0.233

Question: What about the relative viability (ABC-1; first compound 0.4 µM) of the same molecule?
Answer: 0.329

Question: What about the relative viability (ABC-1; first compound 1.265 µM) of the same molecule?
Answer: 0.332

Question: And the relative viability (ABC-1; first compound 4 µM)?
Answer: 0.272

Question: What about the relative viability (EBC-1; first compound 0.04 µM) of the same molecule?
Answer: 0.451

Question: What about the relative viability (EBC-1; first compound 0.1265 µM) of the same molecule?
Answer: 0.245

Question: And the relative viability (EBC-1; first compound 0.4 µM)?
Answer: 0.219

Question: And the relative viability (EBC-1; first compound 1.265 µM)?
Answer: 0.168

Question: What about the relative viability (EBC-1; first compound 4 µM) of the same molecule?
Answer: 0.19

Question: And the relative viability (NCI-H1993; first compound 0.04 µM)?
Answer: 1.08

Question: And the relative viability (NCI-H1993; first compound 0.1265 µM)?
Answer: 1.13

Question: And the relative viability (NCI-H1993; first compound 0.4 µM)?
Answer: 1.04

Question: What about the relative viability (NCI-H1993; first compound 1.265 µM) of the same molecule?
Answer: 0.738

Question: What about the relative viability (NCI-H1993; first compound 4 µM) of the same molecule?
Answer: 0.458

Question: What about the relative viability (NCI-H1703; first compound 0.04 µM) of the same molecule?
Answer: 0.248

Question: What about the relative viability (NCI-H1703; first compound 0.1265 µM) of the same molecule?
Answer: 0.206

Question: And the relative viability (NCI-H1703; first compound 0.4 µM)?
Answer: 0.19

Question: What about the relative viability (NCI-H1703; first compound 1.265 µM) of the same molecule?
Answer: 0.122

Question: And the relative viability (NCI-H1703; first compound 4 µM)?
Answer: 0.102

Question: And the relative viability (Calu-6; first compound 0.04 µM)?
Answer: 1.04

Question: And the relative viability (Calu-6; first compound 0.1265 µM)?
Answer: 0.931

Question: What about the relative viability (Calu-6; first compound 0.4 µM) of the same molecule?
Answer: 0.815

Question: What about the relative viability (Calu-6; first compound 1.265 µM) of the same molecule?
Answer: 0.663

Question: And the relative viability (Calu-6; first compound 4 µM)?
Answer: 0.391

Question: And the relative viability (NCI-H1299; first compound 0.04 µM)?
Answer: 1.03

Question: What about the relative viability (NCI-H1299; first compound 0.1265 µM) of the same molecule?
Answer: 0.924

Question: And the relative viability (NCI-H1299; first compound 0.4 µM)?
Answer: 0.963

Question: What about the relative viability (NCI-H1299; first compound 1.265 µM) of the same molecule?
Answer: 0.499

Question: And the relative viability (NCI-H1299; first compound 4 µM)?
Answer: 0.363

Question: And the relative viability (IA-LM; first compound 0.04 µM)?
Answer: 0.643

Question: What about the relative viability (IA-LM; first compound 0.1265 µM) of the same molecule?
Answer: 0.428

Question: And the relative viability (IA-LM; first compound 0.4 µM)?
Answer: 0.0917

Question: What about the relative viability (IA-LM; first compound 1.265 µM) of the same molecule?
Answer: 0.0837

Question: What about the relative viability (IA-LM; first compound 4 µM) of the same molecule?
Answer: 0.0676

Question: And the relative viability (HCC-44; first compound 0.04 µM)?
Answer: 0.941

Question: And the relative viability (HCC-44; first compound 0.1265 µM)?
Answer: 0.702

Question: And the relative viability (HCC-44; first compound 0.4 µM)?
Answer: 0.744

Question: What about the relative viability (HCC-44; first compound 1.265 µM) of the same molecule?
Answer: 0.461

Question: What about the relative viability (HCC-44; first compound 4 µM) of the same molecule?
Answer: 0.224

Question: What about the relative viability (EKVX; first compound 0.04 µM) of the same molecule?
Answer: 0.981

Question: What about the relative viability (EKVX; first compound 0.1265 µM) of the same molecule?
Answer: 0.842

Question: What about the relative viability (EKVX; first compound 0.4 µM) of the same molecule?
Answer: 1.16

Question: What about the relative viability (EKVX; first compound 1.265 µM) of the same molecule?
Answer: 0.749

Question: And the relative viability (EKVX; first compound 4 µM)?
Answer: 0.704

Question: And the relative viability (NCI-H2126; first compound 0.04 µM)?
Answer: 1.08

Question: What about the relative viability (NCI-H2126; first compound 0.1265 µM) of the same molecule?
Answer: 1.01

Question: And the relative viability (NCI-H2126; first compound 0.4 µM)?
Answer: 1.14

Question: And the relative viability (NCI-H2126; first compound 1.265 µM)?
Answer: 0.981

Question: And the relative viability (NCI-H2126; first compound 4 µM)?
Answer: 0.966

Question: And the relative viability (NCI-H2085; first compound 0.04 µM)?
Answer: 0.999

Question: And the relative viability (NCI-H2085; first compound 0.1265 µM)?
Answer: 0.861

Question: What about the relative viability (NCI-H2085; first compound 0.4 µM) of the same molecule?
Answer: 0.893

Question: And the relative viability (NCI-H2085; first compound 1.265 µM)?
Answer: 0.61

Question: And the relative viability (NCI-H2085; first compound 4 µM)?
Answer: 0.564
